Measured values as given in PMC10201364 (MicrobiologyOpen, 2023).

Assays:
[1] = target: Ah‐BarR (P ah‐at aminotransferase promoter, mKate2 reporter) (Acidianus hospitalis, UniProt F4B5V3); test: cell-based
Method: (§1) Reporter gene assays were performed as previously described (Bernauw et al., [2022]). pPRC6 and pITC variants (Table 1) were co‐transformed in E. coli MG1655 chemical competent cells using heat shock transformation. Transformant colonies of the Ah‐BarR biosensor strains were picked to inoculate wells of a transparent 96‐well plate (Greiner Bio‐One), each well filled with 200 µL of MOPS EZ Rich Defined medium (Teknova), prepared without the addition of the 5X EZ Supplement, after which the plate was incubated overnight in a ThermoMixer C (Eppendorf) at 30°C and 300 rpm. Next, a black 96‐well plate was filled with a naringenin solution prepared in ethanol (250 mg/L or 2.5 g/L), after which a Breathe‐Easy sealing membrane (Sigma‐Aldrich) was applied and the ethanol was evaporated in a ThermoMixer C (Eppendorf) at 75°C. […] Finally, the plate was sealed again using a Breathe‐Easy sealing membrane (Sigma‐Aldrich).
(§2) Plates were incubated at 30°C and 300 rpm for 40 h in a Synergy H1 microplate reader (BioTek) with measurements of OD600 and fluorescence (excitation wavelength: 588 nm, emission wavelength: 633 nm) being taken every 20 min. The gain was set to 140 for all measurements, except for the measurements with the amino acids (pools and separately), where the gain was set to 150. […] In addition, wells solely containing medium were measured as well to correct for the background signal.
(§3) Reporter expression was analyzed at t = 30 h, when all cultures had reached the stationary phase, by taking into account three subsequent time points (t–1, t, t+1). The corrected FL/OD600 value was calculated for each replicate (n = 4) as follows: FL/ODcor=FLt−1−FLmed,t−1/ODt−1−ODmed,t−1+FLt−FLmed,t/ODt−ODmed,t+FLt+1−FLmed,t+1/ODt+1−ODmed,t+1/3
(§4) Response curves were fitted to a Hill function of the shape P(M)=b+aM^n/θ^n+M^nforaβ−alanine−inducible responseb+aθ^n/θ^n+M^nforaβ−alanine−repressible response according to a previously published procedure (Landry et al., [2018]) with minor adaptations. […] Briefly, lmfit 1.1.0 was used to fit all replicates of a response curve to the appropriate Hill function using the Levenberg‐Marquardt algorithm (Moré, [1978]; Newville et al., [2016]). […] The dynamic range was estimated as μ=a/b .

[2] = target: Ah‐BarR T136A (P ah‐barR promoter, mKate2 reporter) (Acidianus hospitalis, UniProt F4B5V3, T136A); test: cell-based
Method: as §1, §2, §3, §4

[3] = BS2, β‐alanine 0–10 mM, 20 mg/L naringenin, Hill fit
[4] = BS1 T136A, β‐alanine 0–10 mM, 20 mg/L naringenin, Hill fit

Chain of Ah‐BarR (P ah‐at aminotransferase promoter, mKate2 reporter) (F4B5V3 1-165): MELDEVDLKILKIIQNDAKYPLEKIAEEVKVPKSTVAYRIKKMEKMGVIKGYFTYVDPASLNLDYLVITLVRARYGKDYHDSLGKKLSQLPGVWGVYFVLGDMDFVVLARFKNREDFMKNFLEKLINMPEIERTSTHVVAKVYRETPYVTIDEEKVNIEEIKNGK
Chain of Ah‐BarR T136A (P ah‐barR promoter, mKate2 reporter) (F4B5V3 entry or part of it T136A): as the sequence (F4B5V3 1-165) above, with T136A counted along it

`NCCC(=O)O` [β‐alanine] was tested, and the EC50 [1] was 110 µM, the Hill coefficient n ([1]; BS2, 20 mg/L naringenin) was 1.62 and the “Dynamic range µ” value ([1]; BS2, µ = a/b) was 1.58. For the same compound, the “Basal fluorescence output b” value [1, 3] was 313 RFU, the “Maximum fluorescence increase a” value [1, 3] was 494 RFU and the EC50 [2] was 960 µM. For the same compound, the Hill coefficient n ([2]; BS1 T136A, 20 mg/L naringenin) was 1.36, the “Dynamic range µ” value ([2]; BS1 T136A, µ = a/b) was 3.31 and the “Basal fluorescence output b” value [2, 4] was 2469 RFU. For the same compound, the “Maximum fluorescence increase a” value [2, 4] was 8171 RFU.
